Source: patent US10538485B2, “Compounds for use as therapeutic agents affecting P53 expression and/or activity” (ABIVAX, priority 2011, dated 2020)

Experiments:
Type in all cases: cell-based
[1] = tested on: p53 (wild-type p53 MCF7 cells); assay: p53 and Δ133p53 mRNA level by RT-qPCR in MCF7 cells; settings: 5 μM, 48 hours, vs DMSO
Method: (§1) The compounds of the invention have been tested according to the following pharmacological test and the three compounds have been more particularly tested: (40), (1) and (45), all diluted in DMSO. Their effects were thus compared to cells treated with DMSO. A positive control was used, TG003, a benzothiazole compound known to alter splicing through the inhibition of Clk/Sty family activity (Sigma, ref: T5575).
(§2) Two breast cancer cell lines have been treated with 5 μM of drugs for 48 hours: wild-type p53 MCF7 cells and mutant p53 (R280K) MDA-MB-231-Luc-D3H2N provided by Caliper Life Science (parental Line source: American Type Culture collection). The MDA-MB-231-Luc-D3H2N cells were maintained in two different media during treatment: a DMEM supplemented with 10% foetal calf serum (FCS) and a FCS-free medium for 24 hours followed by 24 hours in a complete medium. The MC7 cells were maintained in a DMEM/FCS 10% medium.
(§3) Cells were harvested after 48 hours of treatment. Total RNAs (RNeasy Mini-Kit, Qiagen) and proteins (NuPage LDS 1×, Invitrogen) were extracted to analyse mRNA expression by nested RT-PCR or RT-qPCR and protein expression by Western Blot.
(§4) Analysis of p53 expression was assessed both at mRNA (full-length and truncated, Δ133p53 isoforms) and protein (full-length) levels by RT-qPCR and Western Blot, respectively.
(§5) The p53 isoform cDNA being too long to be specifically quantified by RT-qPCR, a semi-quantitative RT-PCR method was therefore used, requiring high quality total RNA 28S/18S ratio (>1.5). After reverse-transcription of 500 ng of total RNA using random primers, actin cDNA was amplified by PCR to confirm reverse-transcription efficiency. 0.5 μg of total RNA from each tumour sample was reverse-transcribed (AMV RT, 45 C, random primer) and cDNA quality confirmed by amplification of actin by PCR in 30 cycles. p53 isoform cDNA was amplified by 2 nested PCR of 30 cycles using primers specific of each isoforms as described in Bourdon et al. (Genes Dev., 2005, 19: 2122). Tumours were considered to express each p53 isoform after sequencing of the corresponding PCR fragment.

[2] = tested on: p53 (mutant p53 (R280K) MDA-MB-231-Luc-D3H2N cells); assay: p53 protein expression by Western Blot (4 antibodies) in MDA-MB-231-Luc-D3H2N cells; settings: 5 μM, 48 hours
Method: as §1, §2, §3
(§6) p53 protein expression was determined using a panel of 4 different antibodies, namely DO1, SAPLI, CMI and DO12 as described in Bourdon et al. (Genes Dev., 2005, 19: 2122), to avoid problem of detection due to post-translational modification.
The amount of total proteins in each extract was quantified using BCA kit (promega). 8% SDS-PAGE gels were used. Equal amount (30 μg) of proteins was loaded on each lane. Proteins were then transferred electrophoretically on nitrocellulose membrane. Membranes were blocked in TBS/0.1% Tween 20 containing 3% milk for one hour and then incubated overnight with the primary antibodies diluted in TBS/0.1% Tween 20 containing 3% milk. After several washes in TBS/Tween, membranes were incubated with anti-rabbit Ig antibodies linked to HRP. Membranes were developed with ECL according to the manufacturer's instructions.
(§7) Scanned autoradiographs were quantified using AIDA/2D densitometry software.

[3] = tested on: p53-target genes Hdm2, Bcl-2, p21 (mutant p53 MDA-MB-231-Luc-D3H2N cells); assay: p53 transcriptional activity: p53-target gene expression by Western-blot in MDA-MB-231-Luc-D3H2N cells; settings: 5 μM, 48 hours
Method: as §1, §2, §3
(§8) Analysis of p53 transcriptional activity was assessed through analysis of p53-target gene expression by Western-blot. Four p53-target genes were studied: Hdm2, Bcl-2, p21 and Bax. Hdm2 is known to bind p53 and to negatively regulate p53 activity and stability. p21 is known to mediate p53 dependent cycle arrest. Bcl 2 is known to have an anti-proliferative effect and an apoptotic protective effect, while Bax is known to have a pro-apoptic effect. Bax was not detected in both MCF7 and MDA-MB-231-Luc-D3H2N cells, while p21 was not detected in MDA-MB-231-Luc-D3H2N cells maintained in FCS-free medium. The Western-blot was performed as above described using the antibodies described in Bourdon et al., Genes Dev., 2005, 19: 2122.

[4] = tested on: p53-target genes Hdm2, Bcl-2, p21 (wild-type p53 MCF7 cells); assay: p53 transcriptional activity: p53-target gene expression by Western-blot in MCF7 cells; settings: 5 μM, 48 hours
Method: as §1, §2, §3, §8

[5] = tested on: p53 isoforms produced by alternative splicing (wild-type p53 MCF7 cells); assay: p53 isoforms (α, β, γ) expression at mRNA level in MCF7 cells; settings: 5 μM, 48 hours, RT-qPCR
Method: as §2, §3
(§9) Expression of p53 isoforms produced by alternative splicing (α, β and γ) was analysed at mRNA levels by RT-qPCR using primers/probe specific of each C-terminal variants. The α-forms are the most abundant forms. In the low abundant forms, β-forms are more expressed than γ-forms.
as §5, with “A semi-quantitative” for “The p53 isoform cDNA being too long to be specifically quantified by RT-qPCR, a semi-quantitative”, “method” for “method was therefore used,”, “RT, 45C,” for “RT, 45 C,”, “described by” for “described in”

[6] = tested on: p53 isoforms produced by alternative splicing (mutant p53 MDA-MB-231-Luc-D3H2N cells); assay: p53 isoforms (α, β, γ) expression at mRNA level in MDA-MB-231-Luc-D3H2N cells; settings: 5 μM, 48 hours, RT-qPCR
Method: as §2, §3, §9
as §5, with “A semi-quantitative” for “The p53 isoform cDNA being too long to be specifically quantified by RT-qPCR, a semi-quantitative”, “method” for “method was therefore used,”, “RT, 45C,” for “RT, 45 C,”, “described by” for “described in”

[7] = tested on: p53 (wild-type p53 MCF7 cells); assay: p53 protein expression by Western Blot (4 antibodies) in MCF7 cells; settings: 5 μM, 48 hours, vs DMSO
Method: as §1, §2
Cells were harvested after 48 hours of treatment. […]
as §6
The amount of total proteins in each extract was quantified using BCA kit (promega). […]
as §7

[8] = tested on: p53 (mutant p53 (R280K) MDA-MB-231-Luc-D3H2N cells); assay: p53 mRNA level by RT-qPCR in MDA-MB-231-Luc-D3H2N cells; settings: 5 μM, 48 hours; for p53 expression at mRNA levels (total isoforms, TA): mutant p53 MDA-MB-231-Luc-D3H2N cells in normal medium
Method: as §1, §2, §3, §4, §5

[9] = mutant p53 MDA-MB-231-Luc-D3H2N cells in FCS-free medium
[10] = mutant p53 MDA-MB-231-Luc-D3H2N cells in normal medium

SMILES | total p53 expression (total isoforms, TA) at mRNA levels [1] | p53 protein levels (full-length) [2, 9] | p53 protein levels (full-length) [2, 10] | p53-target genes expression [3, 10] | expression of Bcl-2 (p53-target gene) [4] | expression of Hdm2 (p53-target gene) [4] | expression of p53 β-forms (mRNA) [5] | expression of p53 γ-forms (mRNA) [5] | p53 α-form expression at mRNA levels [5] | p53 α-form expression at mRNA levels [6, 9] | expression of p53 β-forms (mRNA) [6, 10] | expression of p53 γ-forms (mRNA) [6, 10] | p53 α-form expression at mRNA levels [6, 10] | p53 protein levels (full-length) [7] | p53 expression at mRNA levels (total isoforms, TA) [8] | also measured
CCN(CC)CCNC(=O)c1ccccc1Nc1ccc(OC(F)(F)F)cc1 [Compound 45, N-(2-diethylamino-ethyl)-2-(4-trifluoromethoxy-phenylamino)-benzamide] | did not change | did not change | did not change | slight decrease | decreased expression | decreased expression | tend to increase | tend to increase | did not change | did not change | tend to increase | tend to increase | did not change | decreased | decreased | expression of Bcl-2 (p53-target gene) [3, 9]: slight decrease; expression of p53 β-forms (mRNA) [6, 9]: tend to increase; expression of p53 γ-forms (mRNA) [6, 9]: tend to increase; significant increase of p53 β-forms (mRNA) [6, 10]: 3 fold; significant increase of p53 γ-forms (mRNA) [6, 10]: 2 fold; p53 expression at mRNA levels (total isoforms, TA): decreased or not [8, 9]: decreased
CCN(CC)CCCNC(=O)c1cccc(Nc2cccc(/C=C/c3ccc(OC)cc3)c2)c1 [Compound 40] | did not change | did not change | did not change | did not affect | decreased expression | decreased expression | tend to increase | tend to increase | did not change | did not change | tend to increase | tend to increase | did not change | decreased | decreased | Δ133p53 mRNA level [1]: increased; p53-target genes expression [3, 9]: did not affect
